Measured values published in US20260053812A1, “METHODS OF TREATING HYPERTENSION WITH A COMBINATION OF AN ALDOSTERONE SYNTHASE INHIBITOR AND A DIURETIC” (Mineralys Therapeutics, Inc., priority 2022, published 2026).
“Also recorded” adds a separate entry of the source.

Columns and labels:
[1] = Estimated glomerular filtration rate (eGFR, CKD-EPI equation); assay type: in vivo, human
plasma renin activity = assay: Pharmacodynamics: plasma renin activity (PRA); assay type: in vivo, human; details: for Renin Activity, mean observed: BL
From the text: PK/PD Analysis Set includes all subjects in the SAF who have sufficient data available for the analysis of pharmacokinetic and pharmacodynamic measurements. In the analyses based on PKPD, subjects will be analyzed according to the actual treatment received.

CC(=O)N[C@H]1CC[C@H](NC(=O)CN2CCN(c3nncc(-c4ccc(C)cc4)n3)CC2)CC1 [Compound A HBr]
Estimated Glomerular Filtration Rate, mean change from baseline ([1]; Part 1, 50 mg QD, Week 2): −4.32 mL/min/1.73 m^2
Estimated Glomerular Filtration Rate, mean observed ([1]; Part 1, 50 mg QD, Week 2): 72.86 mL/min/1.73 m^2
Estimated Glomerular Filtration Rate, mean change from baseline ([1]; Part 1, 50 mg QD, Week 3): −2.35 mL/min/1.73 m^2
Estimated Glomerular Filtration Rate, mean observed ([1]; Part 1, 50 mg QD, Week 3): 74.81 mL/min/1.73 m^2
Estimated Glomerular Filtration Rate, mean change from baseline ([1]; Part 1, 50 mg QD, Week 4): −3.61 mL/min/1.73 m^2
Estimated Glomerular Filtration Rate, mean observed ([1]; Part 1, 50 mg QD, Week 4): 73.63 mL/min/1.73 m^2
Estimated Glomerular Filtration Rate, mean change from baseline ([1]; Part 1, 50 mg QD, Week 5): −4.10 mL/min/1.73 m^2
Estimated Glomerular Filtration Rate, mean observed ([1]; Part 1, 50 mg QD, Week 5): 70.58 mL/min/1.73 m^2
Estimated Glomerular Filtration Rate, mean change from baseline ([1]; Part 1, 50 mg QD, Week 6): −2.83 mL/min/1.73 m^2
Estimated Glomerular Filtration Rate, mean observed ([1]; Part 1, 50 mg QD, Week 6): 74.63 mL/min/1.73 m^2
Estimated Glomerular Filtration Rate, mean change from baseline ([1]; Part 1, 50 mg QD, Week 7): −5.46 mL/min/1.73 m^2
Estimated Glomerular Filtration Rate, mean observed ([1]; Part 1, 50 mg QD, Week 7): 69.68 mL/min/1.73 m^2
Estimated Glomerular Filtration Rate, mean change from baseline ([1]; Part 1, 50 mg QD, Week 8): −4.64 mL/min/1.73 m^2
Estimated Glomerular Filtration Rate, mean observed ([1]; Part 1, 50 mg QD, Week 8): 72.54 mL/min/1.73 m^2
Estimated Glomerular Filtration Rate, mean observed ([1]; Part 1, 100 mg QD, BL): 77.35 mL/min/1.73 m^2
Estimated Glomerular Filtration Rate, mean change from baseline ([1]; Part 1, 100 mg QD, Week 1): −6.80 mL/min/1.73 m^2
Estimated Glomerular Filtration Rate, mean observed ([1]; Part 1, 100 mg QD, Week 1): 70.81 mL/min/1.73 m^2
Estimated Glomerular Filtration Rate, mean change from baseline ([1]; Part 1, 100 mg QD, Week 2): −10.91 mL/min/1.73 m^2
Estimated Glomerular Filtration Rate, mean observed ([1]; Part 1, 100 mg QD, Week 2): 65.56 mL/min/1.73 m^2
Estimated Glomerular Filtration Rate, mean change from baseline ([1]; Part 1, 100 mg QD, Week 3): −9.24 mL/min/1.73 m^2
Estimated Glomerular Filtration Rate, mean observed ([1]; Part 1, 100 mg QD, Week 3): 67.22 mL/min/1.73 m^2
Estimated Glomerular Filtration Rate, mean change from baseline ([1]; Part 1, 100 mg QD, Week 4): −9.46 mL/min/1.73 m^2
Estimated Glomerular Filtration Rate, mean observed ([1]; Part 1, 100 mg QD, Week 4): 67.23 mL/min/1.73 m^2
Estimated Glomerular Filtration Rate, mean change from baseline ([1]; Part 1, 100 mg QD, Week 5): −10.50 mL/min/1.73 m^2
Estimated Glomerular Filtration Rate, mean observed ([1]; Part 1, 100 mg QD, Week 5): 66.19 mL/min/1.73 m^2
Estimated Glomerular Filtration Rate, mean change from baseline ([1]; Part 1, 100 mg QD, Week 6): −9.94 mL/min/1.73 m^2
Estimated Glomerular Filtration Rate, mean observed ([1]; Part 1, 100 mg QD, Week 6): 66.19 mL/min/1.73 m^2
Estimated Glomerular Filtration Rate, mean change from baseline ([1]; Part 1, 100 mg QD, Week 7): −9.50 mL/min/1.73 m^2
Estimated Glomerular Filtration Rate, mean observed ([1]; Part 1, 100 mg QD, Week 7): 66.96 mL/min/1.73 m^2
Estimated Glomerular Filtration Rate, mean change from baseline ([1]; Part 1, 100 mg QD, Week 8): −7.83 mL/min/1.73 m^2
Estimated Glomerular Filtration Rate, mean observed ([1]; Part 1, 100 mg QD, Week 8): 68.42 mL/min/1.73 m^2
Estimated Glomerular Filtration Rate, mean observed ([1]; Part 2, 100 mg QD, BL): 79.90 mL/min/1.73 m^2
Estimated Glomerular Filtration Rate, mean change from baseline ([1]; Part 2, 100 mg QD, Week 1): −9.65 mL/min/1.73 m^2
Estimated Glomerular Filtration Rate, mean observed ([1]; Part 2, 100 mg QD, Week 1): 70.73 mL/min/1.73 m^2
Estimated Glomerular Filtration Rate, mean change from baseline ([1]; Part 2, 100 mg QD, Week 2): −8.05 mL/min/1.73 m^2
Estimated Glomerular Filtration Rate, mean observed ([1]; Part 2, 100 mg QD, Week 2): 72.07 mL/min/1.73 m^2
Estimated Glomerular Filtration Rate, mean change from baseline ([1]; Part 2, 100 mg QD, Week 3): −7.33 mL/min/1.73 m^2
Estimated Glomerular Filtration Rate, mean observed ([1]; Part 2, 100 mg QD, Week 3): 72.69 mL/min/1.73 m^2
Estimated Glomerular Filtration Rate, mean change from baseline ([1]; Part 2, 100 mg QD, Week 4): −7.20 mL/min/1.73 m^2
Estimated Glomerular Filtration Rate, mean observed ([1]; Part 2, 100 mg QD, Week 4): 72.92 mL/min/1.73 m^2
Estimated Glomerular Filtration Rate, mean change from baseline ([1]; Part 2, 100 mg QD, Week 5): −8.69 mL/min/1.73 m^2
Estimated Glomerular Filtration Rate, mean observed ([1]; Part 2, 100 mg QD, Week 5): 71.23 mL/min/1.73 m^2
Estimated Glomerular Filtration Rate, mean change from baseline ([1]; Part 2, 100 mg QD, Week 6): −10.87 mL/min/1.73 m^2
Estimated Glomerular Filtration Rate, mean observed ([1]; Part 2, 100 mg QD, Week 6): 68.04 mL/min/1.73 m^2
Estimated Glomerular Filtration Rate, mean change from baseline ([1]; Part 2, 100 mg QD, Week 7): −7.34 mL/min/1.73 m^2
Estimated Glomerular Filtration Rate, mean observed ([1]; Part 2, 100 mg QD, Week 7): 72.82 mL/min/1.73 m^2
Estimated Glomerular Filtration Rate, mean change from baseline ([1]; Part 2, 100 mg QD, Week 8): −7.95 mL/min/1.73 m^2
Estimated Glomerular Filtration Rate, mean observed ([1]; Part 2, 100 mg QD, Week 8): 72.43 mL/min/1.73 m^2
Change in estimated glomerular filtration rate (eGFR) ([1]; across dosing cohorts): dose-dependent and reversible reduction
Renin Activity, mean observed (plasma renin activity; Part 1, 12.5 mg BID): 1.299 µg/L/h
Renin Activity, mean observed (plasma renin activity; Part 1, 12.5 mg QD): 0.950 µg/L/h
Renin Activity, mean observed (plasma renin activity; Part 1, 25 mg BID): 1.104 µg/L/h
Renin Activity, mean observed (plasma renin activity; Part 1, 50 mg QD): 1.258 µg/L/h
Renin Activity, mean observed (plasma renin activity; Part 1, 100 mg QD): 0.956 µg/L/h
Renin Activity, mean observed (plasma renin activity; Part 2, 100 mg QD): 5.417 µg/L/h
Plasma renin activity (plasma renin activity; pharmacodynamic response, all doses, listed as lorundrostat): commensurate increase; also recorded: increased in all subjects treated with lorundrostat
